{
  "source": "patent US20250262161A1",
  "about": "“COMPOSITION, METHOD FOR ITS PREPARATION AND ITS USE FOR INCREASING THE SOLUBILITY OF ACTIVE SUBSTANCES” (Philipps-Universität Marburg, priority 2021, published 2025)",
  "experiment": "Solubility of curcumin in water (amount dissolved, UV/Vis measurement)",
  "format": "physicochemical",
  "conditions": "visual yellow colouring of supernatant",
  "procedure": "Curcumin was first incorporated into eggshell flour. Two different methods were used for this purpose. […] Ethanol was evaporated without stirring (HP). […] Ethanol was evaporated with stirring (R). For comparison, curcumin was mixed with eggshell meal (physical mixture=PM) and added to water as a pure substance (bulk). From all samples, the amount of dissolved curcumin was measured. […] The dissolved amount of curcumin was determined at different time points by UV/Vis measurement. […] For method 2, the solubility was approximately 50 times higher.\nThe physical mixture contained similar amounts.",
  "data": [
    {"smiles": "COc1cc(/C=C/C(=O)CC(=O)/C=C/c2ccc(O)c(OC)c2)ccc1O", "note": "[pure substance, Curcumin]", "values": [
      {"measurement": "dissolution of curcumin in the water phase (discolouration of aqueous supernatant)", "value": "no dissolution of curcumin occurred"}
    ]}
  ]
}
